Values quoted from earlier work, collected in patent US20230218514A1, “FLOATING SUSTAINED RELEASE TABLET FORMULATION OF DROXIDOPA AND METHOD THEREOF” (priority 2022, published 2023).

How the values were obtained:
[1] = not given; remark: listed apart in the source
[2] = not given; remark: listed apart in the source
mice = details: mouse, in vivo
rats = details: rat, in vivo
dogs = details: dog, in vivo
monkeys = details: monkey, in vivo

In the case of `N[C@H](C(=O)O)[C@H](O)c1ccc(O)c(O)c1` [Droxidopa, (2S,3R)-2-amino-3-(3,4-dihydroxyphenyl)-3-hydroxypropanoic acid], the Solubility is given as no less than 3000 µg/mL, the “Stability in alkaline medium” value (alkaline medium) is given as “highly unstable” and the “Solubility in dilute HCl” value (dilute HCl) is given as “Soluble”. The “Solubility in organic solvents” value (methanol, glacial acetic acid, ethanol, acetone, chloroform) was “Practically insoluble”, the Solubility in water (water) was “Slightly soluble” and the Cmax ([1]; in vivo) was 3160 ng/mL. For the same compound, the Elimination half life ([1]; in vivo) was 2.5 h, the Half-life ([1]; in vivo) was 2 to 3 h and the Route of elimination ([1]; in vivo) was “mainly eliminated through urine”. For the same compound, the Tmax ([1]; in vivo) was 1 to 4 h, the Volume of distribution ([1]; in vivo) was 200 L and the Oral bioavailability ([1]; oral) was 90%. For the same compound, the Protein binding [2] was 75%, the Hepatotoxicity (patients; human, in vivo) was “not found” and the “Side effects, share of patients” value (patients; nausea, headache, dizziness, increased B.P, hallucination and anorexia) was 0.78%. For the same compound, the “Acute oral LD50” value (mice) was “more than 5 g/kg”, the “Acute oral LD50” value (rats) was “more than 5 g/kg” and the “Acute oral LD50” value (dogs) was “more than 5 g/kg”. The “Acute oral LD50” value (monkeys) was “more than 5 g/kg”.
